# Laboratory results taken from article PMC8742647 (Clinical and Translational Science, 2021).
# Where two headings read alike, the source gives them in different places.
# What was measured:
# [1] = ref Table S1; cited from earlier work
# [2] = prediction of CLt,human by multispecies allometric scaling, rule of exponent; details: for Predicted CLt,human, ROE: from CLt in rats, monkeys and dogs
# [3] = blood‐to‐plasma concentration ratio, ref Table S1; cited from earlier work
# [4] = ref Table S1; cited from earlier work; remark: listed apart in the source
# [5] = system: cryopreserved human hepatocytes; assay: in vitro metabolic stability assay using cryopreserved human hepatocytes; details: for turnover during a 4‐h incubation in the human hepatocyte assay: criterion for low‐CLint compounds: no significant turnover (<20%); for CLint per hepatocyte, Humans: in vitro, human hepatocytes, corrected with fraction unbound in hepatocytes and medium
# [6] = total clearance after intravenous administration to rats; assay type: in vivo, Sprague–Dawley rats; details: intravenous cassette dose 0.1 mg/kg, N = 3
# [7] = total clearance after intravenous administration to PXB-mice; assay type: in vivo, PXB‐mice (chimeric mice with humanized livers); details: intravenous cassette dose 0.1 mg/kg, N = 3, noncompartmental analysis
# [8] = prediction of CLt,human by single-species allometric scaling from PXB-mice; set-up: species or system humans; details: for Predicted CLt,human, PXB‐SSS: scaled from CLt in PXB-mice, exponent 0.75; for Fold error (predicted/observed), PXB‐SSS: predicted/observed CLt,human
# [9] = prediction of CLt,human by physiologically based scaling using PXB-mice; set-up: species or system humans; details: for Predicted CLt,human, PXB‐PBS: from CLt in PXB-mice, dispersion model, CLint per hepatocyte assumed equal; for Fold error (predicted/observed), PXB‐PBS: predicted/observed CLt,human
# [10] = ref Table S1; cited from earlier work; remark: listed apart in the source
# [11] = humans; ref Table S1; cited from earlier work
# [12] = for Predicted CLt,human, FCIM: from CLt in rats, monkeys and dogs and fu,p ratio rat/human
# [13] = prediction of CLt,human by in vitro–in vivo extrapolation; set-up: species or system humans; details: from in vitro CLint per human hepatocyte, dispersion model
# [14] = fraction unbound in plasma, equilibrium dialysis; assay type: in vitro ADME, humans; details: fraction unbound in human plasma
# [15] = fraction unbound in rat plasma; ref Table S1; cited from earlier work
# [16] = total clearance after intravenous administration to monkeys; assay type: in vivo, cynomolgus monkeys; details: intravenous cassette dose 0.1 mg/kg, N = 3
SMILES,"CLt, Monkeys [1]","Predicted CLt,human, ROE [2]","R b, Humans [3]","CLt, Dogs [4]",turnover during a 4‐h incubation in the human hepatocyte assay [5],"CLt, Rats [6]","CLt, PXB‐mice [7]","Predicted CLt,human, PXB‐SSS [8]","Predicted CLt,human, PXB‐PBS [9]","Observed CLt,human [11]","CLint per hepatocyte, Humans [5]","Predicted CLt,human, FCIM [12]","Predicted CLt,human, IVIVE [13]","f u,p, Humans [14]","f u,p, Rats [15]",other results
Cn1c(=O)c2[nH]cnc2n(C)c1=O [Theophylline],1.08 mL/min/kg,0.68 mL/min/kg,0.85,1.73 mL/min/kg,< 20%,1.91 mL/min/kg,4.70 mL/min/kg,0.60 mL/min/kg,0.72 mL/min/kg,,,,,,,
CCOc1ccccc1OC(c1ccccc1)C1CNCCO1 (stereo not drawn) [Reboxetine],14.94 mL/min/kg,9.52 mL/min/kg,,22.39 mL/min/kg,,,,2.39 mL/min/kg,2.79 mL/min/kg,0.82 mL/min/kg,13.9 µl/min/1 × 10^6 cells,1.82 mL/min/kg,1.37 mL/min/kg,,,"CLt, Rats [10]: 61.51 mL/min/kg"
COc1cc2nc(N3CCN(C(=O)C4COc5ccccc5O4)CC3)nc(N)c2cc1OC (stereo not drawn) [Doxazosin],,3.93 mL/min/kg,,,,,34.245 mL/min/kg,4.61 mL/min/kg,5.65 mL/min/kg,,41.5 µl/min/1 × 10^6 cells,6.20 mL/min/kg,5.62 mL/min/kg,0.066,,
COc1ccccc1Oc1c(NS(=O)(=O)c2ccc(C(C)(C)C)cc2)nc(-c2ncccn2)nc1OCCO [Bosentan],20.6 mL/min/kg,1.68 mL/min/kg,0.48,1.72 mL/min/kg,,,8.78 mL/min/kg,1.18 mL/min/kg,1.39 mL/min/kg,2.1 mL/min/kg,12.3 µl/min/1 × 10^6 cells,5.37 mL/min/kg,0.68 mL/min/kg,,,"CLt, Rats [10]: 16.40 mL/min/kg"
CN1C(=O)CN=C(c2ccccc2)c2cc(Cl)ccc21 [Diazepam],17.90 mL/min/kg,12.46 mL/min/kg,0.71,46.71 mL/min/kg,,,42.147 mL/min/kg,5.68 mL/min/kg,7.52 mL/min/kg,0.38 mL/min/kg,,2.53 mL/min/kg,0.69 mL/min/kg,,,"CLt, Rats [10]: 61.51 mL/min/kg"
CNC(=C[N+](=O)[O-])NCCSCc1ccc(CN(C)C)o1 [Ranitidine],,5.4 mL/min/kg,,,,99.88 mL/min/kg,131.02 mL/min/kg,16.9 mL/min/kg,16.4 mL/min/kg,,,11.1 mL/min/kg,,1.000,0.900,
CC(=O)C[C@@H](c1ccccc1)c1c(O)c2ccccc2oc1=O [(S)‐Warfarin],,0.417 mL/min/kg,0.55,,< 20%,0.21 mL/min/kg,0.484 mL/min/kg,0.062 mL/min/kg,0.074 mL/min/kg,0.055 mL/min/kg,,0.330 mL/min/kg,,,,"discrepancy between observed and predicted CLt,human, ROE approach [2]: more than 3 fold; % remaining after a 4‐h incubation ([5]; cryopreserved human hepatocytes, 0.5 million cells/ml, 0.1 or 1 µmol/l, 4 h): 80%; discrepancy between observed and predicted CLt,human, FCIM approach [12]: more than 3 fold"
Nc1ccc(S(=O)(=O)c2ccc(N)cc2)cc1 [Dapsone],,0.91 mL/min/kg,,,< 20%,6.87 mL/min/kg,4.40 mL/min/kg,0.60 mL/min/kg,0.67 mL/min/kg,,,2.01 mL/min/kg,,0.381,,
CCCCNC(=O)NS(=O)(=O)c1ccc(C)cc1 [Tolbutamide],,0.040 mL/min/kg,,,< 20%,0.39 mL/min/kg,0.58 mL/min/kg,0.074 mL/min/kg,0.088 mL/min/kg,,,,,,,"CLt, Monkeys [16]: 0.0456 mL/min/kg"
CC(C)(C)NC[C@H](O)COc1nsnc1N1CCOCC1 [Timolol],13.6 mL/min/kg,,0.84,,< 20%,137.02 mL/min/kg,130.05 mL/min/kg,16.8 mL/min/kg,13.7 mL/min/kg,8.5 mL/min/kg,,,,0.715,0.760,"Fold error (predicted/observed), PXB‐SSS [8]: 1.98; Fold error (predicted/observed), PXB‐PBS [9]: 1.62"
Cc1cc(=O)n(-c2ccccc2)n1C [Antipyrine],11.5 mL/min/kg,3.32 mL/min/kg,1,7.22 mL/min/kg,< 20%,7.86 mL/min/kg,4.60 mL/min/kg,0.59 mL/min/kg,0.71 mL/min/kg,0.64 mL/min/kg,,3.31 mL/min/kg,,0.990,0.690,"discrepancy between observed and predicted CLt,human, ROE approach [2]: more than 3 fold; Fold error (predicted/observed), ROE ([2]; predicted/observed CLt,human): 5.19; discrepancy between observed and predicted CLt,human, FCIM approach [12]: more than 3 fold; Fold error (predicted/observed), FCIM ([12]; predicted/observed CLt,human): 5.17; Fold error (predicted/observed), PXB‐SSS [8]: 0.92; Fold error (predicted/observed), PXB‐PBS [9]: 1.10"
COc1ccc2cc([C@H](C)C(=O)O)ccc2c1 [(S)‐Naproxen],0.83 mL/min/kg,0.051 mL/min/kg,0.55,0.04 mL/min/kg,,0.41 mL/min/kg,0.556 mL/min/kg,0.072 mL/min/kg,0.085 mL/min/kg,0.11 mL/min/kg,,,,,,
CC(C)N(CCC(C(N)=O)(c1ccccc1)c1ccccn1)C(C)C (stereo not drawn) [Disopyramide],19 mL/min/kg,7.36 mL/min/kg,1.2,29 mL/min/kg,,179.46 mL/min/kg,28.86 mL/min/kg,3.72 mL/min/kg,4.63 mL/min/kg,0.9 mL/min/kg,3.2 µl/min/1 × 10^6 cells,,1.24 mL/min/kg,0.161,0.610,
